# Assay results as given in patent publication EP0452101B1, “Spiro bridged and unbridged heterocyclic compounds” (ISRAEL INSTITUTE FOR BIOLOGICAL RESEARCH, priority 1990, dated 1991).
# Where two headings read alike, the source gives them in different places.
# Experiments:
# AF64A-treated rats = assay: 8-arm radial maze (RAM) with delay procedure in AF64A-treated rats, Part B; type: in vivo
# Description: This animal model mimics the cholinergic hypofunction and cognitive dysfunction in SDAT (Fisher and Hanin, loc cit; Fisher et al, Neurosci. Lett. 102: 325-331, 1989); the method described in the latter publication was used here.
# In brief, saline- and A64A-pretreated rats (3 nmole/2 µl./side, icv) were used in these experiments, 2.5 months after the lesion. The experiment was carried out over a three-week period. During the first week the rats were trained to find food pellets in all eight arms of the maze. After learning the task, the rats were trained using the delay procedure. During a predelay session, four of the arms of the maze were closed and the rats collected the food pellets from the remaining four opened arms. During this period working memory errors were recorded. Following a two hour delay, the rats were returned to the maze. All of the arms of the maze were now open but only four of them, those which were closed during the pre-delay session, were baited. The rats had to collect the food pellets without entering any previously visited arms, whether during the predelay or the post-delay session. After reaching a baseline level the rats were tested for their performance during the third week of the experiment in which either 10mM phosphate buffer (pH 7.3), or AF150 (0.07 or 1.0 mg./kg. free base dissolved in 10 mM phosphate buffer, pH 7.3), were administered i.p., immediately after the pre-delay session, once a day for five days.
# M1 muscarinic receptor = molecular target: T1, M1 muscarinic receptor (Rattus norvegicus, UniProt P08482); assay: Displacement of 3H-QNB from rat cerebral cortex, 50 mM phosphate buffer; type: binding
# T1 sequence (P08482 1-460): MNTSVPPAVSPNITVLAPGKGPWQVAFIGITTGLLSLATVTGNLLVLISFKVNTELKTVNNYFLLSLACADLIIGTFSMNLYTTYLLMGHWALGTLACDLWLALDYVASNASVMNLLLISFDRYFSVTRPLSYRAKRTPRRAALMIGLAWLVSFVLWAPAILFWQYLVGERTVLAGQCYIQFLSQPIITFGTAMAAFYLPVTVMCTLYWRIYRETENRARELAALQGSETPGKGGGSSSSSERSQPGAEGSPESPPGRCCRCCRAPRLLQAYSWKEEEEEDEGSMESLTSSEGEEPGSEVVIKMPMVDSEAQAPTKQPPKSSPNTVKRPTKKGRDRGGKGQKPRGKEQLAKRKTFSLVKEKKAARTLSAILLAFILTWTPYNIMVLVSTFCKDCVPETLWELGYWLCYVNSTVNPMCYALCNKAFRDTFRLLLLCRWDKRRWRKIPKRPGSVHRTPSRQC
# [1] = system: Male white mice of the CD-1 strain; assay: Pharmacodynamic profile and general toxicity, Part B (signs, mortality, LD50); type: in vivo; design: key to Altered spontaneous motor activity (Mot): increased (inc); decreased (dec); key to Piloerection (Pil) / Hypothermia (Hyp) / Salivation (Sal) / Lacrimation (Lac) / Diarrhea (Dia) / Mydriasis (Myd): sli = slight; mod = moderate; sev = severe; details: for Analgesia (Ana) / Convulsive seizure (Con) / Respiratory distress (Res) / Tremors (Tre): animals affected/treated
# Text: Male white mice of the CD-1 strain (Charles River, UK), within the body weight range of 18-26 g, were used throughout this study, carried out on AF123, AF125 and AF125(N).
# Furthermore, these initial trials clearly established that the major signs of reactions to treatment consisted primarily of signs characteristic for potential cholinomimetic activity of the test material, such as tremors, salivation, lacrimation, diarrhea, analgesia, hypothermia and vasodilation. […]
structure (smiles),measurement,setting,value
"CC1=NCC2(CCN(C)CC2)O1 [AF150, 2-Methyl-spiro(1,3-oxazoline-5,4')-1'-methylpiperidine]",Working memory errors (session I),"AF64A-treated rats; AF150 0.07 mg./kg., i.p. group, AF64A rats, week (pre)II, before treatment",3.33±1.18
same,Working memory errors (session I),"AF64A-treated rats; AF150 0.07 mg./kg., i.p. group, Sal. rats, week (pre)II, before treatment",0.33±0.12
same,Working memory errors (session I),"AF64A-treated rats; AF150 0.07 mg./kg., i.p., AF64A rats, week III",3.75±1.04
same,Working memory errors (session I),"AF64A-treated rats; AF150 0.07 mg./kg., i.p., Sal. rats, week III",0.18±0.07
same,Working memory errors (session I),"AF64A-treated rats; AF150 1.0 mg./kg., i.p. group, AF64A rats, week (pre)II, before treatment",3.00±0.94
same,Working memory errors (session I),"AF64A-treated rats; AF150 1.0 mg./kg., i.p. group, Sal. rats, week (pre)II, before treatment",0.11±0.05
same,Working memory errors (session I),"AF64A-treated rats; AF150 1.0 mg./kg., i.p., AF64A rats, week III",4.22±1.76
same,Working memory errors (session I),"AF64A-treated rats; AF150 1.0 mg./kg., i.p., Sal. rats, week III",0.13±0.07
same,analgesia (tail pinch),"Mice, Male CD strain; 1 mg./kg. i.p., any time of observation",No analgesia
same,analgesia (tail pinch),"Mice, Male CD strain; 5 mg./kg i.p., 15 minutes after injection",Partial analgesia
same,analgesia (tail pinch),"Mice, Male CD strain; 10 mg./kg. i.p., 15 and 30 minutes",complete
same,analgesia (tail pinch),"Mice, Male CD strain; 10 mg./kg. i.p., ≥ 60 minutes",no analgesia
same,RATIOS c:a,M1 muscarinic receptor; KH2 cerebellum : KH1 cortex (3H-QNB),3.5
same,RATIOS b:a,M1 muscarinic receptor; KL1 : KH1 cortex (3H-QNB),49
same,RATIOS d:b,M1 muscarinic receptor; KL2 cerebellum : KL1 cortex (3H-QNB),17
same,% H1,"M1 muscarinic receptor; cortex, Table 5",13%
same,% L1,"M1 muscarinic receptor; cortex, Table 5",87%
"CC1=NCC2(CN3CCC2CC3)O1 (racemic) [AF125, 2-Methyl-spiro(1,3 oxazoline-5,3')quinuclidine]",Altered spontaneous motor activity (Mot),[1]; 5 mg/kg i.v.,dec
same,Lacrimation (Lac),[1]; 5 mg/kg i.v.,sli
same,Mydriasis (Myd),[1]; 5 mg/kg i.v.,sli
same,Salivation (Sal),[1]; 5 mg/kg i.v.,sli
same,Analgesia (Ana),[1]; 5 mg/kg i.v.,5/5
same,Convulsive seizure (Con),[1]; 5 mg/kg i.v.,0/5
same,Respiratory distress (Res),[1]; 5 mg/kg i.v.,0/5
same,Tremors (Tre),[1]; 5 mg/kg i.v.,0/5
same,Altered spontaneous motor activity (Mot),[1]; 10 mg/kg i.v.,dec
same,Diarrhea (Dia),[1]; 10 mg/kg i.v.,sli
same,Hypothermia (Hyp),[1]; 10 mg/kg i.v.,sli
same,Lacrimation (Lac),[1]; 10 mg/kg i.v.,sli
same,Mydriasis (Myd),[1]; 10 mg/kg i.v.,sli
same,Piloerection (Pil),[1]; 10 mg/kg i.v.,sli
same,Salivation (Sal),[1]; 10 mg/kg i.v.,mod
same,Analgesia (Ana),[1]; 10 mg/kg i.v.,5/5
same,Convulsive seizure (Con),[1]; 10 mg/kg i.v.,0/5
same,Respiratory distress (Res),[1]; 10 mg/kg i.v.,0/5
same,Tremors (Tre),[1]; 10 mg/kg i.v.,0/5
same,Convulsive seizure (Con),[1]; 10 mg/kg p.os,0/5
same,Respiratory distress (Res),[1]; 10 mg/kg p.os,0/5
same,Tremors (Tre),[1]; 10 mg/kg p.os,0/5
same,Altered spontaneous motor activity (Mot),"[1]; 20 mg/kg i.v., Table 9",dec
same,Diarrhea (Dia),"[1]; 20 mg/kg i.v., Table 9",mod
same,Hypothermia (Hyp),"[1]; 20 mg/kg i.v., Table 9",mod
same,Lacrimation (Lac),"[1]; 20 mg/kg i.v., Table 9",sev
same,Mydriasis (Myd),"[1]; 20 mg/kg i.v., Table 9",mod
same,Piloerection (Pil),"[1]; 20 mg/kg i.v., Table 9",mod
same,Salivation (Sal),"[1]; 20 mg/kg i.v., Table 9",sev
same,Analgesia (Ana),"[1]; 20 mg/kg i.v., Table 9",5/5
same,Convulsive seizure (Con),"[1]; 20 mg/kg i.v., Table 9",0/5
same,Respiratory distress (Res),"[1]; 20 mg/kg i.v., Table 9",1/5
same,Tremors (Tre),"[1]; 20 mg/kg i.v., Table 9",2/5
same,Lacrimation (Lac),[1]; 20 mg/kg p.os,sli
same,Salivation (Sal),[1]; 20 mg/kg p.os,sli
same,Analgesia (Ana),[1]; 20 mg/kg p.os,0/5
same,Convulsive seizure (Con),[1]; 20 mg/kg p.os,0/5
same,Respiratory distress (Res),[1]; 20 mg/kg p.os,0/5
same,Tremors (Tre),[1]; 20 mg/kg p.os,0/5
same,Altered spontaneous motor activity (Mot),[1]; 40 mg/kg i.v.,dec
same,Diarrhea (Dia),[1]; 40 mg/kg i.v.,mod
same,Hypothermia (Hyp),[1]; 40 mg/kg i.v.,mod
same,Lacrimation (Lac),[1]; 40 mg/kg i.v.,sev
same,Mydriasis (Myd),[1]; 40 mg/kg i.v.,mod
same,Piloerection (Pil),[1]; 40 mg/kg i.v.,mod
same,Salivation (Sal),[1]; 40 mg/kg i.v.,sev
same,Analgesia (Ana),[1]; 40 mg/kg i.v.,5/5
same,Convulsive seizure (Con),[1]; 40 mg/kg i.v.,1/5
same,Respiratory distress (Res),[1]; 40 mg/kg i.v.,3/5
same,Tremors (Tre),[1]; 40 mg/kg i.v.,5/5
same,Altered spontaneous motor activity (Mot),[1]; 40 mg/kg p.os,dec
same,Diarrhea (Dia),[1]; 40 mg/kg p.os,sli
same,Hypothermia (Hyp),[1]; 40 mg/kg p.os,sli
same,Lacrimation (Lac),[1]; 40 mg/kg p.os,mod
same,Piloerection (Pil),[1]; 40 mg/kg p.os,sli
same,Salivation (Sal),[1]; 40 mg/kg p.os,sli
same,Analgesia (Ana),[1]; 40 mg/kg p.os,3/5
same,Convulsive seizure (Con),[1]; 40 mg/kg p.os,0/5
same,Respiratory distress (Res),[1]; 40 mg/kg p.os,0/5
same,Tremors (Tre),[1]; 40 mg/kg p.os,0/5
same,Altered spontaneous motor activity (Mot),[1]; 50 mg/kg p.os,dec
same,Diarrhea (Dia),[1]; 50 mg/kg p.os,sli
same,Hypothermia (Hyp),[1]; 50 mg/kg p.os,sli
same,Lacrimation (Lac),[1]; 50 mg/kg p.os,mod
same,Mydriasis (Myd),[1]; 50 mg/kg p.os,sli
same,Piloerection (Pil),[1]; 50 mg/kg p.os,mod
same,Salivation (Sal),[1]; 50 mg/kg p.os,mod
same,Analgesia (Ana),[1]; 50 mg/kg p.os,5/5
same,Convulsive seizure (Con),[1]; 50 mg/kg p.os,0/5
same,Respiratory distress (Res),[1]; 50 mg/kg p.os,0/5
same,Tremors (Tre),[1]; 50 mg/kg p.os,2/5
same,LD50,"[1]; Intravenous Injection, 95% Confidence Limits 66.6 - 71.2",68.9 mg/kg
same,LD50,"[1]; Oral Administration, 95% Confidence Limits 118.4 - 152.5",134.4 mg/kg
